Data taken from patent EP3189848B1, “A COMPOSITION COMPRISING TRIPEPTIDES FOR THE TREATMENT OF DISEASES OF THE JOINTS AND THE SPINE” (Zamerton Holdings Limited, priority 2014, dated 2016).

What was measured:
Assay type in all cases: in vivo
[1] = system: rats with experimental arthritis; experiment: Primary connective tissue metabolites in blood serum, rat model of systemic steroid (dexamethasone) arthritis; details: Day 56, daily i.m. 4 weeks, 50 mg/kg
Text: Example 2. A study of the chondroprotective activity of a composition comprising peptides Lys-Asp-Glu, Ala-Asp-Glu, Asp-Glu-Gly, and an agent comprising peptides Lys-Asp-Glu, Ala-Asp-Glu, Asp-Glu-Gly and chondroitin sulfate and/or glucosamine sulfate using a rat-based model of systemic steroid arthritis.
Lyophilized powder consisting of peptides Lys-Asp-Glu, Ala-Asp-Glu, Asp-Glu-Gly was used to obtain the preparation for intramuscular injections.
The daily dose of the composition comprising peptides Lys-Asp-Glu, Ala-Asp-Glu, Asp-Glu-Gly was 50 µg/kg (at a weight ratio of the peptides of 1:1:1), 150 µg/kg (at a weight ratio of the peptides of 1:2:1), 300 µg/kg (at a weight ratio of the peptides of 0.1:1:10) or 600 µg/kg (at a weight ratio of the peptides of 1:1:3).
The daily dose of the composition comprising peptides Lys-Asp-Glu, Ala-Asp-Glu, Asp-Glu-Gly and glucosamine sulfate or chondroitin sulfate was 150 µg/kg of the peptides (at a weight ratio of the peptides of 1:2:1) and 50 mg/kg of glucosamine sulfate or chondroitin sulfate, or 300 µg/kg of the peptides (at a weight ratio of the peptides of 0.1:1:10) and 50 mg/kg of glucosamine sulfate or chondroitin sulfate, or 600 µg/kg of the peptides (at a weight ratio of the peptides of 1:1:3) and 50 mg/kg of glucosamine sulfate or chondroitin sulfate. […]
The study was conducted using white outbred male rats 4-5 months of age weighing 250-300 g obtained from the same litter (same age and weight, with normal primary clinical and biochemical analyses parameters). […] The first signs of the arthropathy were detected as early as week 2 of the experiment.
Starting from day 28 of the experiment, all animals received corresponding intramuscular doses of the preparations on a daily basis over 4 weeks. The degree of activity of the pathological process was evaluated using biochemical blood test parameters. […]
Clinical observation of the animals was implemented throughout the study; the functional state of the rat joints was monitored (degree of mobility, resistance to stress, swelling, hyperaemia). […]

[2] = system: patients with degenerative process occurring in the intervertebral joints and intervertebral discs; experiment: Clinical administration to patients with degenerative process of the spine (second group); details: 50 mg intramuscularly daily, 30 injections
Experimental: (§1) Example 3. Administration of the peptide composition and the peptide composition in combination with glucosamine sulfate and/or chondroitin sulfate to patients with degenerative-dystrophic diseases of the joints and the spine.
(§2) The studies were carried out in a group patients aged 40 - 65 years.
The second group (30 patients) was characterized by the degenerative process occurring in the intervertebral joints and intervertebral discs accompanied by deformation of the intervertebral discs and formation of osteophytes, which was manifested in the appearance of pain of varying intensity and duration.
A total of 10 patients in the second group received the peptide composition at a dose of 300 µg; 9 patients received glucosamine sulfate at a dose of 50 mg; and 11 patients received the composition of the peptides at a dose of 300 µg and glucosamine sulfate at a dose of 50 mg administered intramuscularly on a daily basis. The treatment course comprised 30 injections. A therapeutic effect associated with administration of glucosamine sulfate was achieved after at least 1 month of therapy. […]

[3] = system: articular cartilages of the knee joints of the rats; experiment: Histomorphological and morphometric study of the articular cartilages of the knee joints (light microscopy, scoring system)
Experimental: The study was conducted using white outbred male rats 4-5 months of age weighing 250-300 g obtained from the same litter (same age and weight, with normal primary clinical and biochemical analyses parameters). Modeling of steroid arthritis was achieved by three single intramuscular injections of dexamethasone administered at an interval of 1 week at a dose of 7 mg/kg. The first signs of the arthropathy were detected as early as week 2 of the experiment.
Starting from day 28 of the experiment, all animals received corresponding intramuscular doses of the preparations on a daily basis over 4 weeks. The degree of activity of the pathological process was evaluated using biochemical blood test parameters. The following biochemical parameters were used as the parameters for evaluation of the intensity of progression of the pathological process in the experimental groups: the contents of sialic acids, glycoproteins, and chondroitin sulfates in the serum, as these parameters reflect the intensity of progression of the degenerative-dystrophic processes in the connective tissue.
Clinical observation of the animals was implemented throughout the study; the functional state of the rat joints was monitored (degree of mobility, resistance to stress, swelling, hyperaemia). The animals were decapitated under ether anesthesia at the end of the study (on day 56) to harvest biomaterials for biochemical and histomorphological studies.
In order to investigate the chondroprotective activity of the composition, a study of the condition of the morpho- and ultrastructure of the articular cartilages of the knee joints of the rats was carried out on day 56 of the experiment.
The histomorphological investigation of the articular cartilages was carried out using standard light microscopy techniques.
The morphometric measurements were carried out using an ocular micrometer: the cartilage thickness was determined using slide mounts; the measurements were taken at 3 individual points - the central part of the head, and the upper and lower edges. The thickness of the articular cartilages was expressed in conventional units. The density of chondrocytes per conventional unit area was also estimated. Statistical processing of the digital data obtained was performed using Student's t-test and non-parametric methods of analysis (Mann-Whitney U Test). […]

[4] = system: articular cartilages of rats with experimental arthritis; experiment: Electron microscopic study of the ultrastructure of the articular cartilages; details: 50 mg/kg
Experimental: The study of the ultrastructure of the articular cartilages of the rats was performed using conventional electron microscopy techniques.

[5] = system: patients with degenerative-dystrophic diseases of the joints; experiment: Clinical administration to patients with joint disease (first group); details: 500 mg, tablets twice a day three weeks then once daily
Experimental: as §1, §2
The first group (50 patients) was characterized by stiffness in the joints, as well as puffiness or swelling in the joints, which was manifested in the appearance of pain of varying intensity and duration.
A total of 15 patients in the first group were exposed to the peptide composition administered at a dose of 150 µg; 7 patients received glucosamine sulfate at a dose of 500 mg; 10 patients were treated with the composition of the peptides administered at a dose of 150 µg, glucosamine sulfate at a dose of 500 mg, and chondroitin sulfate at a dose of 50 mg; and 18 patients received the composition of the peptides administered at a dose of 150 µg and glucosamine sulfate at a dose of 500 mg in the form of tablets twice a day over the first three weeks and then once daily for up to 6 months. A sustained therapeutic effect associated with administration of glucosamine sulfate was achieved after at least 6 months of therapy. […]

## N[C@H]1C(O)O[C@H](CO)[C@@H](O)[C@@H]1O.O=S(=O)(O)O (stereo partly shown) [Glucosamine sulfate]
[1]
  Chondroitin sulfate: 0.400 ± 0.027 g/L
  Glycoproteins: 3.59 ± 0.29 g/L
  Sialic acids: 4.27 ± 0.34 mmol/L
[2]
  therapy duration until therapeutic effect: at least 1 month
[3]; 50 mg/kg
  morphology of the joints (slide mounts): improvement of the morphology in comparison to the control pathology animal group
[3]; day 56, 50 mg/kg
  Cartilage thickness: 14.10±1.06 conventional units
  Cell density per conventional unit area: 23.79±1.80
  Total score according to the cartilage condition evaluation system: 16.2±1.3
[4]
  ultrastructure of the cartilages: normalization of the ultrastructure of the cartilages accompanied by moderate degenerative-dystrophic manifestations in chondrocytes
[5]
  therapy duration until sustained therapeutic effect: at least 6 months
